The subject of assay [1] is HCT-116. Briefly: Cytotoxicity against human HCT116 cells assessed as reduction in cell viability after 24 hrs by fluorescence based assay. Type of assay: functional. Conditions: HCT-116, 24 h.
Assay [2] concerns HaCaT. Briefly: Cytotoxicity against human HaCaT cells assessed as reduction in cell viability after 24 hrs by fluorescence based assay.

Take `O=C1C2=C3C4=[N+](CCc5c[nH]c1c54)[C@@H]1C(=O)C=C4S[C@H](C[C@]43[C@H]1O)N2`: the half-maximal inhibitory concentration (IC50) in assay [1] is 940 nM.
Take `O=C1C=C(S[C@@H]2[C@H]3C(=O)C=C4S[C@H]5C[C@@]42C2=C(N5)C(=O)c4[nH]cc5c4C2=[N+]3CC5)[C@@]2(C=CNC3=C2c2nccc4cn([C@H]5[C@H]6C(=O)C=C7S[C@H]8C[C@]75C5=C(N8)C(=O)c7[nH]cc8c7C5=[N+]6CC8)c(c24)C3=O)C=C1Br`: the values for the half-maximal inhibitory concentration (IC50) in assay [1] and in assay [2] were 310 nM and 920 nM, respectively.
